Results taken from patent US12673973B2, “Peptide having blood coagulation activity, and use thereof” (CAREGEN CO, LTD., priority 2021, dated 2026).
Peptide text beside a SMILES is read from it.

What was measured:
red blood cells = experiment: Hemolysis test; assay type: cell-based, rat; conditions: 1 hour 37° C.
Experimental: Furthermore, it was confirmed whether hemolysis, in which blood cells are destroyed, occurs by treatment with the peptide of the present invention. In a state where the coagulation reaction of the collected rat blood was suppressed in a heparinized vacuum collection tube, it was transferred to an EP tube and centrifuged at 1,500 g for 10 minutes. After removing the supernatant plasma, the precipitated red blood cells were treated with 200 μl of 2.5% and 5% of the peptide of the present invention, respectively. A sample treated with 1% SDS was used as a positive control for hemolysis. Each sample was stored for 1 hour in a 37° C. incubator, and then centrifuged again at 1,500 g for 10 minutes. 200 μl of the supernatant was transferred to a 96-well plate, and the optical density was measured at a wavelength of 540 nm.

rat blood [1] = experiment: Blood coagulation test: optical density of supernatant; assay type: cell-based; conditions: heparinized rat blood, CaCl2 added, 37° C. 10 minutes
Experimental: In addition, in order to evaluate the coagulation efficacy of the peptide of the present invention, the peptide of the Preparation Example was treated with rat blood, and its optical density was measured. Specifically, in a state where the coagulation reaction of the collected rat blood was suppressed in a heparinized vacuum collection tube, 300 μl of blood was transferred to a 15 ml conical tube, and 300 μl of the peptide of the present invention solution was added thereto and mixed gently. Then, 30 μl of 0.2 M CaCl2 solution was added thereto and incubated at 37° C. for 10 minutes to accelerate the coagulation reaction. Then, 10 ml of distilled water was carefully added thereto, and 200 μl of the uniformly dispersed supernatant was added to a 96-well plate, and the optical density was measured at a wavelength of 540 nm using a spectrophotometer. Likewise, Greenplast and RADA16 peptide preparations were used as controls.

rat blood [2] = experiment: Blood coagulation test: clotting time by tube inversion; assay type: cell-based; conditions: 300 μl heparinized rat blood + 150 μl sample, peptides at 2.5%
Experimental: First, the clotting time of blood according to the treatment of the peptide of the present invention was evaluated. In a state where the coagulation reaction of the collected rat blood was suppressed in a heparinized vacuum collection tube, 300 μl of blood was transferred to an EP tube, and 150 μl of a solution in which the peptide of the present invention was dissolved in purified water was treated thereto. The clotting time was measured by inverting the tube at 10-second intervals and visually evaluating the flowability of the blood. As a control group, the RADA16 peptide sample and Greenplast (Greenplast Q, GC Green Cross) were used to conduct the experiment in the same manner as the peptide of the present invention.

Molecule: CCCCCCCCCCCCOS(=O)(=O)[O-].[Na+] [SDS]
- hemolysis (optical density of supernatant at 540 nm) (red blood cells; 1% SDS positive control): hemolysis occurred

Molecule: RADA16
- optical density (540 nm) of supernatant relative to negative control treated with distilled water (rat blood [1]): 0.7
- Blood Clotting time (rat blood [2]): <30 s
- Blood Clotting time (rat blood [2]; listed as RADA16 peptide): less than 30 sec

Molecule: CC[C@H](C)[C@H](NC(=O)[C@H](CC(N)=O)NC(=O)CNC(=O)[C@H](C)NC(=O)[C@H](CC(C)C)NC(=O)[C@H](Cc1ccc(O)cc1)NC(=O)[C@H](C)NC(=O)[C@H](CCC(N)=O)NC(=O)[C@H](CO)NC(=O)[C@H](C)NC(=O)[C@@H](N)CO)C(=O)N[C@H](C(=O)O)[C@@H](C)O [Peptide of the present invention, SASQAYLAGNIT] (H-SASQAYLAGNIT-OH)
- hemolysis (optical density of supernatant at 540 nm) (red blood cells; 2.5% peptide, 200 μl): did not induce hemolysis
- hemolysis (optical density of supernatant at 540 nm) (red blood cells; 5% peptide, 200 μl): did not induce hemolysis
